Values quoted from earlier work as cited in article PMC11007962, “First-in-human study of GFH018, a small molecule inhibitor of transforming growth factor-β receptor I inhibitor, in patients with advanced solid tumors” (BMC Cancer, 2024).

Set-up: method as in PMID 25488804, PMID 26309397
Settings: consecutive regimens; cited from earlier work

## Cc1cccc(-c2nn3c(c2-c2ccc4ncnn4c2/C=C/C(N)=O)CCC3)n1 [GFH018]
  cardiac findings in toxicology studies: cardiac lesions occur
